Assay results reported in PubChem BioAssay (NCI).
Where “and” joins values, the source holds several entries; their conditions need not be identical. Identical values can stand only once.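 In this assay, cells in 96-well plates receive the compound at five concentrations for 48 hours. Endpoints are linearly interpolated between the surrounding concentrations. Abbreviation: GI50, concentration required for 50% inhibition of growth. TGI denotes the concentration required for complete inhibition of growth.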

Columns and labels:
Assay in all cases: growth of human tumour cells (NCI), 48 h
MOLT-4 leukemia = test system: MOLT-4 leukemia
OVCAR-8 ovarian = test system: OVCAR-8 ovarian
MDA-MB-435 = test system: MDA-MB-435
COLO 205 colon = test system: COLO 205 colon
NCI-H226 lung = test system: NCI-H226 lung
SNB-75 CNS = test system: SNB-75 CNS
TK-10 renal = test system: TK-10 renal
NCI-H23 lung = test system: NCI-H23 lung
EKVX NSCLC = test system: EKVX NSCLC
RPMI-8226 leukemia = test system: RPMI-8226 leukemia

Row | Compound | GI50 (MOLT-4 leukemia) [µM] | TGI (MOLT-4 leukemia) | GI50 (OVCAR-8 ovarian) [µM] | TGI (OVCAR-8 ovarian) [µM] | GI50 (MDA-MB-435) [µM] | TGI (MDA-MB-435) [µM] | GI50 (COLO 205 colon) [µM] | TGI (COLO 205 colon) [µM] | GI50 (NCI-H226 lung) [µM] | TGI (NCI-H226 lung) | GI50 (SNB-75 CNS) [µM] | TGI (SNB-75 CNS) | GI50 (TK-10 renal) [µM] | TGI (TK-10 renal) [µM] | GI50 (NCI-H23 lung) [µM] | TGI (NCI-H23 lung) | GI50 (EKVX NSCLC) [µM] | TGI (EKVX NSCLC) [µM] | GI50 (RPMI-8226 leukemia) [µM] | TGI (RPMI-8226 leukemia) [µM]
1 | COC(=O)Nc1nc2ccc(Sc3ccc(NC(=O)Nc4cc(C(F)(F)F)ccc4F)cc3)cc2[nH]1 | 3.26 | 17 µM | 4.23 | 11.6 | 0.605 | 2.71 | 3.67 | 9.29 | 3.81 | 20.2 µM | 3.32 | 10.9 µM | 5.11 | 11.3 | 3.84 | 11.9 µM | 4 | 21.8 | 7.14 | 24.1
2 | CCNC(=O)Oc1ccc(/C(=C(\C)c2ccc(Cl)cc2)c2ccc(OCCN3CCCCC3)cc2)cc1 | 3.27 | 10.6 µM | 9.31 | 26 | 3.39 | 14.1 | 2.1 | 4.6 | 14.4 | 36.7 µM | 2.67 | 18.6 µM | 19.5 | 34.6 | 5.1 | 19.7 µM | 6.14 | 21.9 | 2.31 | 5.27
3 | COc1ncnc2c(-c3ccco3)cn(COCc3ccccc3)c12 | – | – | > 50 | > 50 | > 50 | > 50 | > 50 | > 50 | > 50 | > 50 µM | 12.7 | > 50 µM | 17.8 | > 50 | > 50 | > 50 µM | 11.5 | > 50 | 4.87 | > 50
4 | CN1CCN(C(=S)SCN2C(=O)c3ccccc3S2(=O)=O)CC1 | 5.08 | 25.7 µM | 46.3 | > 100 | 28.2 | 99.4 | 3.48 | 21.3 | > 100 | > 100 µM | 24.5 | 92.1 µM | 43.4 | > 100 | 35.1 | > 100 µM | > 100 | > 100 | 2.22 | 6.87
5 | O=[N+]([O-])c1cccc(-c2ncc(-c3ccc(Cl)cc3Cl)[nH]2)c1 | 2.49 | 6.34 µM | 22.4 | 53.3 | 3.62 | 12.2 | 3.45 | 11.4 | 8.03 | 21.6 µM | 8 | 36.9 µM | 3.3 | 13.1 | 10.6 | 43.7 µM | 2.15 | 6.81 | 1.08 | 4.68
6 | CC1SC2(CCCCC2)N(NC(=O)c2[nH]c3ccc(F)cc3c2-c2ccccc2)C1=O (centres undefined) | > 100 | > 100 µM | 23.1 | 63.5 | > 100 | > 100 | > 100 | > 100 | > 100 | > 100 µM | 27.2 | 62 µM | 35.3 | > 100 | > 100 | > 100 µM | > 100 | > 100 | 41.2 | > 100
7 | CN1CC(C(=O)NC2(C)OC3(O)C4CCCN4C(=O)C(Cc4ccccc4)N3C2=O)C=C2c3cccc4[nH]cc(c34)CC21 (centres undefined) | – | > 100 µM | – | 53.7 | – | 50.7 | – | 40 | – | 95.5 µM | – | > 100 µM | – | 41.4 | – | 46.9 µM | – | > 100 | – | > 100
8 | C#Cc1cccc(Nc2ncnc3ccc(-c4cncc(NS(C)(=O)=O)c4)cc23)c1 | 1.41 | 4.45 µM | 3.7 | 28.1 | 2.94 | 13.7 | 1.68 | 3.94 | 2.99 | 16.8 µM | 0.524 | 5.09 µM | – | – | 2.36 | 10.8 µM | 1.12 | 4.6 | 2.18 | 4.93
9 | C=C(C)[C@]12CC(C)C34OC(/C=C\C=C\CCCCCCCCC)(O[C@@H]1[C@@H]3[C@@H]1O[C@]1(CO)[C@@H](O)[C@]1(O)C(=O)C(C)=C[C@@H]41)O2 (some centres undefined) | – | – | – | 31.8 | < 0.0001 | 21.5 | – | 14.1 | – | 33.2 µM | – | 22 µM | – | 19.1 | – | 29.2 µM | – | 27.8 | – | 17
10 | CCSc1nc(N)c2cnn(C)c2n1 | 59.9 | > 100 µM | 49.4 | > 100 | 38.7 | > 100 | 29.9 | > 100 | 27.4 | 69.2 µM | 68.9 | > 100 µM | 34.1 | > 100 | 41.5 | > 100 µM | 56.7 | > 100 | 37.5 | > 100
11 | COc1cc(C2c3cc4c(cc3[C@@H](Nc3cccc(O)c3)C3COC(=O)[C@H]23)OCO4)cc(OC)c1O (some centres undefined) | 0.1 | 0.911 µM | 0.769 | 11.4 | – | 18.8 | – | 23.1 | 0.423 | 0.902 µM and 4.04 µM | 0.623 | 14.1 µM | – | 10.7 | 0.445 | 5.52 µM | – | 15 | 0.45 | 9.31
12 | CCc1nc(N)nc(N)c1-c1ccc([N+](=O)[O-])c(Cl)c1 | – | > 100 µM | – | > 100 | – | > 100 | – | > 100 | – | > 100 µM | – | > 92.5 µM | – | > 100 | – | > 100 µM | – | > 100 | – | > 100
13 | Cc1cc2c(cc1Cl)SC1=NN(C)C(c3ccccc3O)N1S2(=O)=O (centres undefined) | > 100 | > 100 µM | 68 | > 100 | > 100 | > 100 | > 100 | > 100 | > 100 | > 100 µM | > 100 | > 100 µM | 82.1 | > 100 | > 100 | > 100 µM | 81.7 | > 100 | > 100 | > 100
14 | CN1C(=O)C23CC4=CC=CC(O)C4N2C(=O)C1(CO)SS3 (centres undefined) | – | 0.447 µM | – | 0.154 | – | 2.56 | – | 0.292 | – | 0.152 µM | – | 0.382 µM | – | 0.34 | – | 0.348 µM | – | 1.33 | – | 0.591
15 | CC[C@@]1(OC(=O)CN(C)C)C(=O)OCc2c1cc1n(c2=O)Cc2cc3ccccc3nc2-1 | – | 0.318 µM and 0.344 µM | 0.0521 | – | – | 1.54 | 0.288 | 6.3 | – | 0.42 µM and 0.445 µM | 0.0475 | 5.8 µM and 4.3 µM | 0.481 | 7.85 | 0.0207 | 0.342 µM and 0.381 µM | 1.88 | – | 0.00464 | –
16 | CCOC(=O)C1=C(c2ccccc2)N(Cc2ccccc2)C2(O)C=CC(=O)C3C(=O)N(c4ccccc4)C(=O)C132 (centres undefined) | 1.89 | 5.01 µM | 3.09 | 17.5 | 1.95 | 4.51 | 1.74 | 3.45 | 2.25 | 4.87 µM | 2.1 | 4.62 µM | 2.71 | 7.24 | 2.12 | 5.59 µM | 2.43 | 6.51 | 1.27 | 4.35
17 | Cc1nc(C(N)=S)sc1C(=O)CC(=O)C(=O)Nc1cccc(Cl)c1C | – | > 100 µM | – | > 100 | – | > 100 | – | – | – | > 100 µM | – | > 100 µM | – | > 100 | – | > 100 µM | – | > 100 | – | > 100
18 | CCCCCCCCCCCCCCCC(=O)OCC1OC(n2ccc(N)nc2=O)C(O)C1O (centres undefined) | – | 44.8 µM | – | > 100 | – | > 100 | – | > 100 | – | > 100 µM | – | > 100 µM | – | > 100 | – | > 41.6 µM | – | > 100 | – | > 100
19 | CCCCCCN1C(=O)CN=C1Nc1ccc2cc3ccc(NC4=NCC(=O)N4CCCCCC)cc3nc2c1 | – | – | – | – | 1.79 | 3.77 | 1.88 | 4.04 | 2.48 | 7.25 µM | 2.15 | 12.4 µM | 1.56 | 3.63 | 1.96 | 5.23 µM | 1.89 | 5.22 | 2.07 | 5.52
20 | CCCCCCCCCCCCNC(=O)[C@H]1CSC(c2ccc(OC)c(F)c2)N1 (some centres undefined) | 0.214 | 0.469 µM | 1.18 | 4.13 | 0.193 | 0.385 | 1.94 | 3.84 | 1.42 | 3.21 µM | 0.468 | 1.01 µM | 1.95 | 3.48 | 1.6 | 3.27 µM | 0.678 | 2 | 2.06 | 4.62
21 | C[C@H](NC(=O)CCC(F)(F)F)C(=O)N[C@@H]1C(=O)N(CCO)c2ncccc2-c2ccccc21 | > 100 | > 100 µM | > 100 | > 100 | > 100 | > 100 | > 100 | > 100 | > 100 | > 100 µM | > 100 | > 100 µM | > 100 | > 100 | > 100 | > 100 µM | > 100 | > 100 | > 100 | > 100
22 | COc1cc(C(=O)N/N=C/c2cccc([N+](=O)[O-])c2)cc(OC)c1OC | 3.98 | > 100 µM | 23.6 | > 100 | 1.09 | 3.88 | 5.11 | 26.9 | 18 | > 100 µM | 6.92 | 56.1 µM | 25.2 | > 100 | 5.96 | > 100 µM | 18.7 | > 100 | 5.39 | > 100
23 | CCN(CC)CCOc1ccc(C2=C(c3ccccc3)CCc3cc(OC)ccc32)cc1 | 4.64 | 21.3 µM | 3.15 | 10.5 | 1.48 | 3.4 | 1.53 | 3.04 | 3.07 | 12.6 µM | 1.4 | 4.62 µM | 2.74 | 9.47 | 2.9 | 11.3 µM | 3.44 | 14 | 2.62 | 11.3
24 | CN(C)c1ccc(Sc2ccc3nc(N)nc(N)c3c2)cc1 | 0.635 | 16 µM | 0.589 | 9.88 | 0.542 | 14.2 | 1.14 | 2.59 | 4.21 | 18.6 µM | 2.14 | 16.3 µM | 4.11 | 15.5 | 0.665 | 18 µM | 2.27 | 23.5 | 2.92 | 10.9
25 | N#CC1(C#N)C2C=CC(C3CCC=C32)C1(C#N)C#N (centres undefined) | – | 6.52 µM | – | > 10 | – | > 10 | – | 3.66 | – | > 10 µM | – | > 10 µM | – | > 9.01 | – | > 10 µM | – | > 10 | – | 8.79
26 | COc1cc2c(cc1OC)[C@H]1C(=O)c3cc4c(cc3[C@H]1N(C)C2=O)OCO4 | – | 5.7 µM | – | > 100 | – | > 100 | – | > 46.4 | – | > 100 µM | – | > 100 µM | – | > 100 | – | > 74.1 µM | – | > 100 | – | > 100
27 | O=C(Nc1ccccc1)Nc1ccccc1CNc1nc(Nc2ccc(OCCN3CCCC3)cc2)ncc1Cl | 2.96 | 20 µM | 7.62 | > 50 | 3.1 | 9.58 | – | – | – | – | 1.2 | 6.22 µM | 4.36 | 15 | 7.29 | 19.5 µM | 7.02 | 15.4 | 1.33 | 3.6
28 | CC(=O)N[C@@H]1CCC[C@H](C(=O)Nc2cc(-c3cnn4c3CC(C)(C)C4)c(Cl)cn2)C1 | < 0.0117 | 0.13 µM | < 0.012 | > 100 | < 0.013 | 11.9 | – | – | < 0.01 | 38.7 µM | < 0.01 | 0.029 µM | < 0.01 | > 100 | < 0.0116 | 0.181 µM | 0.0197 | – | 0.0158 | 0.0703
